Measurements as given in ChEMBL document CHEMBL3525948, “Quantitative prediction of CYP2B6 induction by estradiol during pregnancy: potential explanation for increased methadone clearance during pregnancy” (Drug Metab Dispos, 2013).

What was measured:
CYP2B6 = molecular target: T1, CYP2B6 (Homo sapiens, UniProt P20813); assay: Induction of CYP2B6 activity in human donor hepatocytes assessed as hydroxybupropion formation after 48 hrs by LC/MS method; assay type: ADME, cell-based, Hepatocyte; details: probe bupropion (hydroxybupropion formation measured)
T1 sequence (P20813 whole entry): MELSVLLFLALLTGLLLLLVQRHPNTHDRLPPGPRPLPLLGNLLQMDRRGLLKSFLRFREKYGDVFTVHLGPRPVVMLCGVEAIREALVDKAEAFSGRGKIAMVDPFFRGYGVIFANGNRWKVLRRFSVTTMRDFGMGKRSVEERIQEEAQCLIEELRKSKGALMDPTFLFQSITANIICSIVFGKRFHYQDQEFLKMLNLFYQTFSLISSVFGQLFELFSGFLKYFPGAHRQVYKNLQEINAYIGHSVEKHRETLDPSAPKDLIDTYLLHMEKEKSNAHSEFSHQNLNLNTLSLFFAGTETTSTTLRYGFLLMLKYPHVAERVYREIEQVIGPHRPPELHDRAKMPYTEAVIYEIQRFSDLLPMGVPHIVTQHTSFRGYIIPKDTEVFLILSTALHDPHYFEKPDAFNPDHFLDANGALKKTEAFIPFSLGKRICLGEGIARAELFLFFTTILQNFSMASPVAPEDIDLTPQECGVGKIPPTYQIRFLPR

Hepatocyte = assay: Induction of CYP2B6 mRNA expression in human donor hepatocytes after 48 hrs by real-time PCR method; assay type: ADME, cell-based

| EC50 at 48 h (CYP2B6) [nM] | Compound | EC50 (Hepatocyte) [nM] |
| --- | --- | --- |
| 145000 | NC(=O)N1c2ccccc2C=Cc2ccccc21 [CARBAMAZEPINE] | 26000 |
| 1300 | CO[C@H]1/C=C/O[C@@]2(C)Oc3c(C)c(O)c4c(O)c(c(/C=N/N5CCN(C)CC5)c(O)c4c3C2=O)NC(=O)/C(C)=C\C=C\[C@H](C)[C@H](O)[C@@H](C)[C@@H](O)[C@@H](C)[C@H](OC(C)=O)[C@@H]1C [RIFAMPIN] | 980 |

| Compound | EC50 at 48 h (CYP2B6) [nM] | EC50 (Hepatocyte) [nM] |
| --- | --- | --- |
| C[C@]12CC[C@@H]3c4ccc(O)cc4CC[C@H]3[C@@H]1CC[C@@H]2O [ESTRADIOL] | 4100 | 1900 |
